Test results reported in patent US20210007356A1, “IMIDE DERIVATIVE AND FUNGICIDE CONTAINING SAID DERIVATIVE AS ACTIVE INGREDIENT” (HOKKO CHEMICAL INDUSTRY CO., LTD., priority 2018, published 2021).
Read-outs that look alike come from different tables or passages of the source.

How the values were obtained:
[1] = tested on: rice blast fungus (Pyricularia grisea); assay type: in vivo; details: flowable diluted to 100 ppm, 10 mL per pot foliage spray on paddy rice; inoculated day after; 7 days after inoculation
[2] = tested on: rice sheath blight fungus (Thanatephorus cucumeris); assay: Test Example 8: control effect against rice sheath blight by box treatment (granule); details: 5 g of granule on nursery box, paddy rice; inoculated after 3 weeks; 7 days after inoculation
[3] = tested on: rice blast fungus (Pyricularia grisea); assay type: in vivo; details: flowable 1,000 ppm, 1 mL dripped in paddy water, inoculated after 1 week, 7 days after inoculation
[4] = tested on: rice sheath blight fungus (Thanatephorus cucumeris); assay: Test Example 6: control effect against rice sheath blight by box treatment (flowable formulation); details: flowable 5,000 ppm, 50 mL irrigation of nursery box, paddy rice; inoculated after 3 weeks; 7 days after inoculation
Method: (§1) Control value (%)=[1−(lesion height in sprayed plot/lesion height in unsprayed plot)]×100 (d)
By irrigation, 50 mL of a diluted solution (5,000 ppm) of a flowable prepared according to Formulation Example-3 was applied to a 2.5-leaf-stage paddy rice (variety: Asahi) seedling raised using a nursery box ( 1/10 the area of standard nursery box in size: 12 cm×15 cm×height 4 cm) within a greenhouse. The formulation-treated paddy rice seedling was immediately transplanted at 5 seedlings/pot into a pot ( 1/10000 are in size) filled with paddy soil (flooded). After growing for 3 weeks within a greenhouse, a culture of rice sheath blight fungus (Thanatephorus cucumeris) grown in advance on a rice straw medium was inoculated into the root of the formulation-treated paddy rice, and disease development was promoted in an artificial weather chamber at 26° C. (relative humidity=100%). Seven days after the inoculation, the rice sheath blight lesion height (height from the root) was examined, and the control value (%) was calculated according to formula (d). […] This test was performed with three replications, each consisting of one plot and one pot, per one formulation plot, and its average evaluation value of control effect was determined.

[5] = tested on: rice sheath blight fungus (Thanatephorus cucumeris); assay: Test Example 10: control effect against rice sheath blight by water surface application (flowable formulation); details: flowable 1,000 ppm, 1 mL dripped in paddy water, inoculated after 1 week, 7 days after inoculation
Method: as §1
By dripping treatment in paddy water, 1 mL of a diluted solution (1,000 ppm) of a flowable prepared according to Formulation Example-3 was applied to a 5-leaf-stage paddy rice (variety: Asahi) seedling (5 seedlings/stub, one stub/pot) grown in a pot ( 1/10000 are in size) filled with paddy soil (flooded) within a greenhouse. After growing for 1 week within a greenhouse, a culture of rice sheath blight fungus (Thanatephorus cucumeris) grown in advance on a rice straw medium was inoculated into the root of the formulation-treated paddy rice, and disease development was promoted in an artificial weather chamber at 26° C. (relative humidity=100%). Seven days after the inoculation, the rice sheath blight lesion height (height from the root) was examined, and the control value (%) was calculated according to formula (d). […] This test was performed with three replications, each consisting of one plot and one pot, per one formulation plot, and its average evaluation value of control effect was determined.

[6] = tested on: rice blast fungus (Pyricularia grisea); assay type: in vivo; details: flowable 5,000 ppm, 50 mL irrigation of nursery box, paddy rice; inoculated after 3 weeks; 7 days after inoculation
[7] = tested on: rice blast fungus (Pyricularia grisea); assay type: in vivo; details: 5 g of granule on nursery box, paddy rice; inoculated after 3 weeks; 7 days after inoculation
[8] = tested on: barley powdery mildew fungus (Erysiphe graminis); assay: Test Example 2: control effect against barley powdery mildew by foliage application; assay type: in vivo; details: wettable powder diluted to 100 ppm, 10 mL per pot foliage spray on barley; inoculated day after; 7 days after inoculation

| Structure (SMILES) | evaluation value of control effect (from control value, number of lesions) [1] | evaluation value of control effect (from control value, lesion height) [2] | evaluation value of control effect (from control value, number of lesions) [3] | evaluation value of control effect (from control value, lesion height) [4] | evaluation value of control effect (from control value, lesion height) [5] | evaluation value of control effect (from control value, number of lesions) [6] | evaluation value of control effect (from control value, number of lesions) [7] | evaluation value of control effect (from control value, lesion area percentage) [8] |
| --- | --- | --- | --- | --- | --- | --- | --- | --- |
| Cn1cc(C(=O)N(C(=O)c2snc(Cl)c2Cl)c2ccccc2C2CC2C2CC2)c(C(F)F)n1 (centres unmarked) [1-29] | 4 | 5 | 5 | 5 | 5 | 5 | 5 | 4 |
| CC(C)CC(C)c1ccccc1N(C(=O)c1cn(C)nc1C(F)F)C(=O)c1snc(Cl)c1Cl (centres unmarked) [1-35] | 4 | 5 | 5 | 5 | 5 | 5 | 5 | 5 |
| Cc1nn(C)c(F)c1C(=O)N(C(=O)c1scnc1C(F)F)c1ccccc1C(C)CC(C)C (centres unmarked) [1-346] | 4 | – | 5 | – | – | 5 | 5 | 4 |
| Cc1nnsc1C(=O)N(C(=O)c1cn(C)nc1C(F)F)c1ccccc1-c1cc(F)c(F)c(F)c1 [1-368] | 4 | 5 | – | 5 | 5 | – | – | 4 |
| Cc1nn(C)c(C)c1C(=O)N(C(=O)c1snc(Cl)c1Cl)c1ccccc1C(C)CC(C)C (centres unmarked) [1-377] | 4 | – | 5 | – | – | 5 | 5 | 4 |
| Cc1nn(C)c(Cl)c1C(=O)N(C(=O)c1snc(Cl)c1Cl)c1ccccc1C(C)CC(C)C (centres unmarked) [1-378] | 4 | – | 5 | – | – | 5 | 5 | – |
| CC(C)CC(C)c1ccccc1N(C(=O)c1snc(Cl)c1Cl)C(=O)c1c(C(F)F)nn(C)c1Cl (centres unmarked) [1-379] | 4 | – | 5 | – | – | 5 | 5 | 4 |
| Cc1nnsc1C(=O)N(C(=O)c1cn(C)nc1C(F)(F)F)c1ccsc1C(C)CC(C)C (centres unmarked) [5-19] | 4 | – | 5 | – | – | 5 | 5 | 5 |
| Cc1nc(C(F)(F)F)c(C(=O)N(C(=O)c2snc(Cl)c2Cl)c2c(Br)cc(OC(F)(F)F)cc2Br)s1 [7-279] | 4 | 5 | – | 5 | 5 | – | – | 4 |
| Cc1nc(C(F)(F)F)c(C(=O)N(C(=O)c2sc(C)nc2C(F)(F)F)c2c(Br)cc(OC(F)(F)F)cc2Br)s1 [7-286] | 4 | 5 | – | 5 | 5 | – | – | 4 |
| CC(C)CC(C)c1ccccc1N(C(=O)c1cc(Cl)c(Cl)s1)C(=O)c1cccnc1C(F)F (centres unmarked) [13-50] | 4 | – | 5 | – | – | 5 | 5 | 4 |
| CC(C)CC(C)c1ccccc1N(C(=O)c1cccnc1CF)C(=O)c1snc(Cl)c1Cl (centres unmarked) [13-56] | 4 | – | 5 | – | – | 5 | 5 | 4 |
| CC(C)CC(C)c1ccccc1N(C(=O)c1cccnc1C(C)F)C(=O)c1snc(Cl)c1Cl (centres unmarked) [13-57] | 4 | – | 5 | – | – | 5 | 5 | – |
| CC(C)CC(C)c1ccccc1N(C(=O)c1ccccc1C(F)F)C(=O)c1snc(Cl)c1Cl (centres unmarked) [19-2] | 4 | – | 5 | – | – | 5 | 5 | 4 |
| Cc1nc(C(F)F)c(C(=O)N(C(=O)c2cn(C)nc2C(F)F)c2cccc3c2C(C)CC3(C)C)s1 (centres unmarked) [25-97] | 4 | 5 | – | 5 | 5 | – | – | 4 |
| Cc1nc(C(F)F)c(C(=O)N(C(=O)c2snnc2C)c2cccc3c2C(C)CC3(C)C)s1 (centres unmarked) [26-49] | 4 | – | 5 | – | – | 5 | 5 | 4 |
| Cc1nc(C(F)F)c(C(=O)N(C(=O)c2sc(C)nc2C(F)(F)F)c2cccc3c2C(C)CC3(C)C)s1 (centres unmarked) [26-73] | 4 | 5 | – | 5 | 5 | – | – | 4 |
| Cc1nc(C(F)F)c(C(=O)N(C(=O)c2cc(Cl)nc(Cl)c2)c2cccc3c2C(C)CC3(C)C)s1 (centres unmarked) [26-89] | 4 | 5 | – | 5 | 5 | – | – | 4 |
| CC1OC(C)(C)c2cccc(N(C(=O)c3ccccc3C(F)F)C(=O)c3snc(Cl)c3Cl)c21 (centres unmarked) [28-4] | 4 | 5 | 5 | 5 | 5 | 5 | 5 | – |
